Data published in BigSolDB 2.1.

With `Cc1ccc(S(C)(=O)=O)cc1` the solubility (mole fraction) (in DMF, 278.15 K) was 0.123, the solubility (mole fraction) (in DMF, 283.15 K) was 0.146 and the solubility (mole fraction) (in DMF, 288.15 K) was 0.177. The solubility (mole fraction) (in DMF, 293.15 K) was 0.208, the solubility (mole fraction) (in DMF, 298.15 K) was 0.244 and the solubility (mole fraction) (in DMF, 303.15 K) was 0.282. The solubility (mole fraction) (in DMF, 308.15 K) was 0.332, the solubility (mole fraction) (in DMF, 313.15 K) was 0.389 and the solubility (mole fraction) (in DMF, 318.15 K) was 0.45. For the same compound, the solubility (mole fraction) (in acetone, 278.15 K) was 0.0999, the solubility (mole fraction) (in acetone, 283.15 K) was 0.118 and the solubility (mole fraction) (in acetone, 288.15 K) was 0.144. For the same compound, the solubility (mole fraction) (in acetone, 293.15 K) was 0.172, the solubility (mole fraction) (in acetone, 298.15 K) was 0.199 and the solubility (mole fraction) (in acetone, 303.15 K) was 0.234. For the same compound, the solubility (mole fraction) (in acetone, 308.15 K) was 0.274, the solubility (mole fraction) (in acetone, 313.15 K) was 0.322 and the solubility (mole fraction) (in acetone, 318.15 K) was 0.379. For the same compound, the solubility (mole fraction) (in acetonitrile, 278.15 K) was 0.084, the solubility (mole fraction) (in acetonitrile, 283.15 K) was 0.102 and the solubility (mole fraction) (in acetonitrile, 288.15 K) was 0.13. For the same compound, the solubility (mole fraction) (in acetonitrile, 293.15 K) was 0.155, the solubility (mole fraction) (in acetonitrile, 298.15 K) was 0.183 and the solubility (mole fraction) (in acetonitrile, 303.15 K) was 0.218. The solubility (mole fraction) (in acetonitrile, 308.15 K) was 0.258, the solubility (mole fraction) (in acetonitrile, 313.15 K) was 0.3 and the solubility (mole fraction) (in acetonitrile, 318.15 K) was 0.359. For the same compound, the solubility (mole fraction) (in ethanol, 278.15 K) was 0.00721, the solubility (mole fraction) (in ethanol, 283.15 K) was 0.00993 and the solubility (mole fraction) (in ethanol, 288.15 K) was 0.0137. It also gave a solubility (mole fraction) (in ethanol, 293.15 K) of 0.018, a solubility (mole fraction) (in ethanol, 298.15 K) of 0.0241 and a solubility (mole fraction) (in ethanol, 303.15 K) of 0.0321. It also gave a solubility (mole fraction) (in ethanol, 308.15 K) of 0.042, a solubility (mole fraction) (in ethanol, 313.15 K) of 0.055 and a solubility (mole fraction) (in ethanol, 318.15 K) of 0.0712. It also gave a solubility (mole fraction) (in ethyl acetate, 278.15 K) of 0.0611, a solubility (mole fraction) (in ethyl acetate, 283.15 K) of 0.0732 and a solubility (mole fraction) (in ethyl acetate, 288.15 K) of 0.0872. For the same compound, the solubility (mole fraction) (in ethyl acetate, 293.15 K) was 0.103, the solubility (mole fraction) (in ethyl acetate, 298.15 K) was 0.123 and the solubility (mole fraction) (in ethyl acetate, 303.15 K) was 0.144. For the same compound, the solubility (mole fraction) (in ethyl acetate, 308.15 K) was 0.171, the solubility (mole fraction) (in ethyl acetate, 313.15 K) was 0.203 and the solubility (mole fraction) (in ethyl acetate, 318.15 K) was 0.236. The solubility (mole fraction) (in isopropanol, 278.15 K) was 0.00415, the solubility (mole fraction) (in isopropanol, 283.15 K) was 0.00579 and the solubility (mole fraction) (in isopropanol, 288.15 K) was 0.008. It also gave a solubility (mole fraction) (in isopropanol, 293.15 K) of 0.011, a solubility (mole fraction) (in isopropanol, 298.15 K) of 0.0149 and a solubility (mole fraction) (in isopropanol, 303.15 K) of 0.0203. For the same compound, the solubility (mole fraction) (in isopropanol, 308.15 K) was 0.0275, the solubility (mole fraction) (in isopropanol, 313.15 K) was 0.0367 and the solubility (mole fraction) (in isopropanol, 318.15 K) was 0.0491. The solubility (mole fraction) (in methanol, 278.15 K) was 0.0111, the solubility (mole fraction) (in methanol, 283.15 K) was 0.0153 and the solubility (mole fraction) (in methanol, 288.15 K) was 0.0207. The solubility (mole fraction) (in methanol, 293.15 K) was 0.0282, the solubility (mole fraction) (in methanol, 298.15 K) was 0.0376 and the solubility (mole fraction) (in methanol, 303.15 K) was 0.05. For the same compound, the solubility (mole fraction) (in methanol, 308.15 K) was 0.0657, the solubility (mole fraction) (in methanol, 313.15 K) was 0.0858 and the solubility (mole fraction) (in methanol, 318.15 K) was 0.111. For the same compound, the solubility (mole fraction) (in n-butanol, 278.15 K) was 0.00408, the solubility (mole fraction) (in n-butanol, 283.15 K) was 0.00599 and the solubility (mole fraction) (in n-butanol, 288.15 K) was 0.00869. For the same compound, the solubility (mole fraction) (in n-butanol, 293.15 K) was 0.0125, the solubility (mole fraction) (in n-butanol, 298.15 K) was 0.0178 and the solubility (mole fraction) (in n-butanol, 303.15 K) was 0.0252. For the same compound, the solubility (mole fraction) (in n-butanol, 308.15 K) was 0.0353, the solubility (mole fraction) (in n-butanol, 313.15 K) was 0.0492 and the solubility (mole fraction) (in n-butanol, 318.15 K) was 0.0681. For the same compound, the solubility (mole fraction) (in n-propanol, 278.15 K) was 0.00596, the solubility (mole fraction) (in n-propanol, 283.15 K) was 0.00839 and the solubility (mole fraction) (in n-propanol, 288.15 K) was 0.012. The solubility (mole fraction) (in n-propanol, 293.15 K) was 0.016, the solubility (mole fraction) (in n-propanol, 298.15 K) was 0.022 and the solubility (mole fraction) (in n-propanol, 303.15 K) was 0.03. The solubility (mole fraction) (in n-propanol, 308.15 K) was 0.04, the solubility (mole fraction) (in n-propanol, 313.15 K) was 0.052 and the solubility (mole fraction) (in n-propanol, 318.15 K) was 0.069.
